From patent US20190054109A1, “An antiviral composition and a method for application thereof” (ALLA CHEM, LLC, priority 2017, published 2019)
Like-named read-outs stand apart in the source and are kept apart here. Marks after values point to notes of the source that are not given here.

Key:
physchem = conditions: simulated gi fluid
Method: (§1) Evaluation of stability in biological matrix for compositions comprising the prodrug of formula 1.1. Initial compositions comprising the prodrug of formula 1.1 (the tested compounds) were prepared with a concentration of 10 mM in DMSO. From said compositions, 100-fold working solutions were prepared with a concentration of 100 μM in a mixture of acetonitrile: water with a volumetric ratio of 1:1.
The tested composition comprising the prodrug of formula 1.1 in a final concentration of 1 μM was incubated in artificial gastric juice (0.2% NaCl in 0.7% v/v HCl) and artificial intestinal juice (0.05M KH2PO4, pH 6.75). The incubation was performed in a Vortemp56 shaking incubator at 37° C. with stirring at a rate of 300 rev/min. […] The samples were then centrifuged, and the supernatant (150 μl) was sampled for analysis […]. The incubation was performed in two replicates, with each sample measured twice.
Samples were analyzed using an HPLC-MS/MS technique developed for each tested prodrug, wherein the chromatographic system 1290 Infinity II (Agilent Technologies) was combined with the tandem mass spectrometer QTRAP5500 (AB Sciex). When developing conditions for mass-spectrometric detection, the solutions of tested compounds in a mixture of acetonitrile-water (1:1) with a concentration of 100 ng/ml were injected directly into the mass spectrometer using a syringe pump with electrospray ionization carried out in a positive ion mode. Scanning in a total ion current mode (MS1) allowed us to identify a molecular ion for each compound, and basic product ions were recorded in MS2 mode. Then, to attain maximum sensitivity, the MS/MS technique was optimized in MRM mode. In quantitative chromatogram processing, the most intensive MRM transition was used for the analyte and the internal standard. Separation was carried out by means of linear gradient elution chromatography on a YMC Triart C18 column (50×2 mm, 1.9 μm) in a mobile phase consisting of 0.1% formic acid in water and 0.1% formic acid in acetonitrile. Tolbutamide (Fluka) was used as the internal standard.
Half-life (T1/2) was found from the kinetics of tested prodrug elimination in an antiviral composition during incubation in a biological matrix. The computations were based on the values of chromatographic peak areas for compounds in test samples normalized to the internal standard signal. From linear dependence of log normalized areas of chromatographic peaks on time, the constant of elimination rate was calculated (k is linear section slope).

in vitro = conditions: human, plasma
Method: as §1
The incubation was performed in a Vortemp56 shaking incubator at 37° C. with stirring at a rate of 300 rev/min. […] The samples were then centrifuged, and the supernatant (150 μl) was sampled for analysis […]. The incubation was performed in two replicates, with each sample measured twice.
Samples were analyzed using an HPLC-MS/MS technique developed for each tested prodrug, wherein the chromatographic system 1290 Infinity II (Agilent Technologies) was combined with the tandem mass spectrometer QTRAP5500 (AB Sciex). […] Scanning in a total ion current mode (MS1) allowed us to identify a molecular ion for each compound, and basic product ions were recorded in MS2 mode. […] In quantitative chromatogram processing, the most intensive MRM transition was used for the analyte and the internal standard. […]

[1] = from Sofia et al. J. Med. Chem. 2010, cited from earlier work
[2] = from Sofia et al. J. Med. Chem. 2010, cited from earlier work; remark: listed apart in the source
gT1b NS5B HCV = conditions: cited from earlier work; for EC50: from hcvdruginfo.ca
[3] = from Sofia et al. J. Med. Chem. 2010, cited from earlier work; remark: listed apart in the source
[4] = tested on: Huh7 human hepatocellular carcinoma cell line; conditions: cited from earlier work
[5] = tested on: six HCV genotypes (gT1-gT6); conditions: cited from earlier work

| Structure (SMILES) | half-life at 1 μM (physchem; T1/2 SGF, artificial gastric juice, 37° C.) | half-life at 1 μM (physchem; pH 6.75) | half-life at 1 μM (in vitro) | T1/2 SIF [1] | T1/2 SIF ([1]; listed as Sovaldi ®) | T1/2 Human plasma [2] | T1/2 Human plasma ([2]; listed as Sovaldi ®) | EC90 (gT1b NS5B HCV; HCV genotype 1b (gT1b)) | EC50 (gT1b NS5B HCV; HCV genotype 1b (gT1b)) | EC90 (gT1b NS5B HCV; gT1b HCV, 10% FBS, from Sofia et al. J. Med. Chem. 2010) | EC50 (gT1b NS5B HCV; gT1b HCV, 10% FBS) | T1/2 SGF [3] | T1/2 SGF ([3]; listed as Sovaldi ®) | CC90 ([4]; 10% FBS, from Sofia et al. J. Med. Chem. 2010) | CC50 ([4]; Huh7, Table 2 marks the value as from Sofia et al.) | efficiency in clinical trials [5] |
| --- | --- | --- | --- | --- | --- | --- | --- | --- | --- | --- | --- | --- | --- | --- | --- | --- |
| C[C@H](N[P@@](=O)(OC[C@H]1O[C@@H](n2ccc(=O)[nH]c2=O)[C@](C)(F)[C@@H]1O)Oc1ccccc1)C(=O)OC1CCC1 [Prodrug 1.2, cyclobutyl (S)-2-((R)-(((2R,3R,4R,5R)-5-(2,4-dioxo-3,4-dihydropyrimidin-1(2H)-yl)-3-hydroxy-4-methyl-4-fluoro-tetrahydrofuran-2-yl)methoxy)-(phenoxy)-phosphorylamino)-propanoate] | 12.7 to 15 h | > 24 h | > 24 h |  |  |  |  |  |  |  |  |  |  |  |  |  |
| CC(C)OC(=O)[C@H](C)N[P@](=O)(OC[C@H]1O[C@@H](n2ccc(=O)[nH]c2=O)[C@](C)(F)[C@@H]1O)Oc1ccccc1 [Sovaldi®, Sofosbuvir] |  |  |  | > 24 h | >24* h | > 24 h | >24* h | 590 nM | 45 to 170 nM | 520 nM | 45 to 170 nM | 12.7 to 15 h | 22.0* h | > 100000 nM | > 100000 nM | high efficiency |
